The results in this text go back to publication PMC8546428, “Convergent olfactory trace amine-associated receptors detect biogenic polyamines with distinct motifs via a conserved binding site” (The Journal of Biological Chemistry, 2021).

Substitutions are numbered along the chain they refer to. Bounds are passed on as bounds.

One assay addresses T1, WT mTAAR9 (Mus musculus, UniProt Q5QD04).
T1 construct: Rho-tag (first 20 amino acids of bovine rhodopsin) (N); expressed in transfected cells; host or cells: Hana3A (HEK293-derived)
T1 sequence (Q5QD04 1-348): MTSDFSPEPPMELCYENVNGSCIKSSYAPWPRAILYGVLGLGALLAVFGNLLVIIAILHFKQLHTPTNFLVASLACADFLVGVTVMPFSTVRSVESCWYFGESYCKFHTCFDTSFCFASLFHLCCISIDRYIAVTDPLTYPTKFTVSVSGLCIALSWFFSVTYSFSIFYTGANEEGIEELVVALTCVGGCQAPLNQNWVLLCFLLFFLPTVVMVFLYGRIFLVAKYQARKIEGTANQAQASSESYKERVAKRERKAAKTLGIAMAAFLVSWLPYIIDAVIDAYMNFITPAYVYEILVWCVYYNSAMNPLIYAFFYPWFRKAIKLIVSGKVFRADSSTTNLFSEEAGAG
Briefly: CRE-luciferase reporter assay, wild-type mTAAR9 in Hana3A. In kind it is cell-based. The settings on record: WT mTAAR9, Hana3A, CRE-luciferase; read-out: EC50 (mean ± S.D., n = 3). The procedure:
(§1) Mammalian TAAR9 plasmids were transfected into Hana3A cells along with a cAMP-dependent luciferase reporter plasmid (CRE-Luc). Transfected cells were incubated with tested ligands, and luciferase activity was quantified with a […] substrate as a reporter for Golf-mediated TAAR activation. Luciferase activity was indicated by the luminescence value and normalized as a fold-increase over the response to the vehicle stimuli (mean ± S.D., n = 3). […] B, Hana3A cells expressing mouse, rat, human, cat, hamster, and rabbit TAAR9 were incubated with either vehicle or tested ligands (1 mM) and assayed for reporter activity. C, concentration-dependent luciferase activity in Hana3A cells expressing mouse, rat, and cat TAAR9 receptors stimulated with cadaverine, spermidine, and spermine.
(§2) The firefly luciferase and renilla luciferase activity was measured with a BioTek microplate reader following manufacturer’s instructions.
(Reporter assays use an easily measured gene product as a stand-in for the process of interest.)

Another assay concerns the target T2, mTAAR9 Y6.51W (Mus musculus, UniProt Q5QD04, Y274W).
T2 construct: expressed in transfected cells; host or cells: Hana3A (HEK293-derived)
T2 sequence (Q5QD04 1-348 Y274W): T1 sequence (Q5QD04 1-348) with Y274W
Briefly: CRE-luciferase reporter assay, mTAAR9 mutant in Hana3A. In kind it is cell-based. The note with it: read-out: EC50 (mean ± S.D., n = 3).

For another assay, the target named is T3, mTAAR9 E7.36D (Mus musculus, UniProt Q5QD04, E294D).
T3 construct: expressed in transfected cells; host or cells: Hana3A (HEK293-derived)
T3 sequence (Q5QD04 1-348 E294D): T1 sequence (Q5QD04 1-348) with E294D
The description is as above. The settings on record: read-out: EC50 (mean ± S.D., n = 3). In kind it is cell-based.

The target in another assay is T4, mTAAR9 W7.40F (Mus musculus, UniProt Q5QD04, W298F).
T4 construct: expressed in transfected cells; host or cells: Hana3A (HEK293-derived)
T4 sequence (Q5QD04 1-348 W298F): T1 sequence (Q5QD04 1-348) with W298F
Described as above. The note with it: read-out: EC50 (mean ± S.D., n = 3). In kind it is cell-based.

The target of another assay is T5, mTAAR9 W7.40Y (Mus musculus, UniProt Q5QD04, W298Y).
T5 construct: expressed in transfected cells; host or cells: Hana3A (HEK293-derived)
Described as above. Format: cell-based. The settings on record: read-out: EC50 (mean ± S.D., n = 3).

The next assay concerns the target T6, mTAAR9 W7.40A (Mus musculus, UniProt Q5QD04, W298A).
T6 construct: expressed in transfected cells; host or cells: Hana3A (HEK293-derived)
T6 sequence (Q5QD04 1-348 W298A): T1 sequence (Q5QD04 1-348) with W298A
The description is as above. The note with it: read-out: EC50 (mean ± S.D., n = 3). In kind it is cell-based.

For the next assay, the target named is T7, Rat TAAR9 (Rattus norvegicus, UniProt Q923Y6).
T7 construct: expressed in transfected cells; host or cells: Hana3A (HEK293-derived)
T7 sequence (Q923Y6 1-338): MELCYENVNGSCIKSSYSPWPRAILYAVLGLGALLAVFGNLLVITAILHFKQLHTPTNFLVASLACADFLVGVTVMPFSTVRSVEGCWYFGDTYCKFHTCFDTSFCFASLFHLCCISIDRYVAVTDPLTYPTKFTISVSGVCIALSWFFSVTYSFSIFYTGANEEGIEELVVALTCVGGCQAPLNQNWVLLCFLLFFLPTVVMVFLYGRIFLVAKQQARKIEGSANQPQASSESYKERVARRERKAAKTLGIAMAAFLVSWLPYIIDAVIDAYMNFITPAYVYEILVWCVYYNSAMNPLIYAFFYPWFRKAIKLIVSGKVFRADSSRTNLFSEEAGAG
Briefly: CRE-luciferase reporter assay in Hana3A. In kind it is cell-based. The note with it: rat TAAR9, ligand 1 mM, Fig. 1B. The method, then:
We examined the response of TAAR9s from rat, human, hamster, and rabbit to the stimulation of 1 mM amines using a well-established cAMP response element (CRE)-driven luciferase reporter assay based on Golf-mediated cAMP signal transduction ([5], [24]). In addition to the four mTAAR9 ligands, we included putrescine, which is also a polyamine and precursor of spermine/spermidine biosynthesis.
as §1, §2

The next assay addresses T8, mTAAR8c (Mus musculus, UniProt Q5QD05).
T8 construct: expressed in transfected cells; host or cells: Hana3A (HEK293-derived)
In words: CRE-luciferase reporter assay in Hana3A, mouse olfactory TAARs. In kind it is cell-based. The note with it: ligand 500 μM, Fig. 1D. The method, then:
as §1
(§3) We then sought to determine if other mouse olfactory TAARs are activated by the mTAAR9 ligands.
as §2

For a further assay, the target named is mTAAR5 (Mus musculus, UniProt Q5QD14). The note with it: mTAAR5, ligand 500 μM, Fig. 1D. The procedure: as §1, §3, §2
For another assay, the target named is mTAAR7f (Mus musculus, UniProt Q5QD08). The settings on record: ligand 500 μM, Fig. 1D. The procedure: as §1, §3, §2
Sequence of mTAAR7f (Q5QD08 whole entry): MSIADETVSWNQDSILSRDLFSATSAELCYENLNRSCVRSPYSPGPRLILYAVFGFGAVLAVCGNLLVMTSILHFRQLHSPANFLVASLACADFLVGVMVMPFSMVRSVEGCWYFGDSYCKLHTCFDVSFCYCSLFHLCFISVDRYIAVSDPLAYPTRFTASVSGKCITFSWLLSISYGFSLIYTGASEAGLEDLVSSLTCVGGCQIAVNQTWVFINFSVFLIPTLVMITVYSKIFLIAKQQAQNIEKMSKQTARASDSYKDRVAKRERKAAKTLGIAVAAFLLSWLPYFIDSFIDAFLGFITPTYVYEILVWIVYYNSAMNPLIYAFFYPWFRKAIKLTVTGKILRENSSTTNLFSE

T8 sequence (Q5QD05 whole entry): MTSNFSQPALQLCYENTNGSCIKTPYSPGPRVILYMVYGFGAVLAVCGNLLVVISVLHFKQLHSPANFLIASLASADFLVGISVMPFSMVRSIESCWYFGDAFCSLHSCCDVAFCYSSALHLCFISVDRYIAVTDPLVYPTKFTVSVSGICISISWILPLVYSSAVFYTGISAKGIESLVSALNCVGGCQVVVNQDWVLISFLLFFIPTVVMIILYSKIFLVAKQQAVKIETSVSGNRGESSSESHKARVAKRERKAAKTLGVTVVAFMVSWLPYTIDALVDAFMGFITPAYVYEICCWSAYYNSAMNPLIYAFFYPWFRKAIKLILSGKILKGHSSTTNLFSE
Sequence of mTAAR5 (Q5QD14 whole entry): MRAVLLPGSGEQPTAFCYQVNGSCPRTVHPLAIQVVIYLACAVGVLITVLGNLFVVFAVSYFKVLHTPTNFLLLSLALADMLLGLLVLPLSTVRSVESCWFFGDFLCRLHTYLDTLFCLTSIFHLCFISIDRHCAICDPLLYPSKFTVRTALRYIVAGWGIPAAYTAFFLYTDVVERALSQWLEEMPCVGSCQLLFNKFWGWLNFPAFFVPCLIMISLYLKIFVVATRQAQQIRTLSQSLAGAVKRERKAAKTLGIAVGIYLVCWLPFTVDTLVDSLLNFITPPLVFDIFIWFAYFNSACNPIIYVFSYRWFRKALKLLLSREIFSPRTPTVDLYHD
T5 sequence (Q5QD04 whole entry W298Y): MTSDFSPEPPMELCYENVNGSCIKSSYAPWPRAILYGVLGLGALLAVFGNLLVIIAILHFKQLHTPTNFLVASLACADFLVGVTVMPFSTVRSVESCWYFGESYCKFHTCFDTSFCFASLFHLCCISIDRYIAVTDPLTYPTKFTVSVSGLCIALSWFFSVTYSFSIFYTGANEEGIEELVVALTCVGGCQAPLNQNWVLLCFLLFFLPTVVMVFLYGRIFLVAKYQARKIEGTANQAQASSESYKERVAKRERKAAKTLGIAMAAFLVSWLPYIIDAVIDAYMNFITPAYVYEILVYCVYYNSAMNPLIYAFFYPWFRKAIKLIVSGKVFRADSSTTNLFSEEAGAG

As for `NCCCCNCCCN` [spermidine], the EC50 (as a rule, the concentration giving half of the maximal effect) at WT mTAAR9 is 43 ± 7 µM; on mTAAR9 Y6.51W it was more than 1000 µM; at mTAAR9 E7.36D, 142 ± 43 µM; on mTAAR9 W7.40F it was 9 ± 7 µM; on mTAAR9 W7.40Y, 2 ± 0.5 µM; at mTAAR9 W7.40A it was 68 ± 48 µM. The “reporter activity (activation of TAAR9)” value at Rat TAAR9 is “maximum responses”. Also, the reporter activity result on mTAAR8c is recorded as “modest activity”.
For `CCN(CC)CC` [triethylamine], the EC50 was 251 ± 82 µM on WT mTAAR9; 355 ± 80 µM at mTAAR9 Y6.51W; more than 1000 µM on mTAAR9 E7.36D; 36 ± 16 µM on mTAAR9 W7.40F; more than 1000 µM at mTAAR9 W7.40A. In addition, the reporter activity result is listed as “moderate activities” at mTAAR8c, “moderate activities” at mTAAR5 and “robust responses” on mTAAR7f.
